Laboratory results reported in the supplement of paper PMC10331698.
± gives the standard deviation of the averaged measurements.

Key:
Assay in all cases: level (log10 ratio to DMSO vehicle control); higher = higher biomarker level / cell amount than vehicle control
Conditions in all cases: in DMSO
[1] = compound: FC(F)(F)C(F)(F)C(F)(F)C(F)(F)C(F)(F)C(F)(F)C(F)(F)CCI [1-Iodo-1H,1H,2H,2H-perfluorononane]
Experimental: (§1)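 BioMAP Diversity Plus panel of 12 human primary cell co-culture systems (3C, 4H, LPS, SAg, BT, BF4T, BE3C, CASM3C, HDF3CGF, KF3CT, MyoF, Mphg). Compounds were added 1 h before stimulation and left for 24 h (MyoF 48 h; BT 72 h for soluble read-outs or 6 d for IgG). Biomarkers were read by ELISA, cytotoxicity by SRB, PBMC viability and proliferation by Alamar Blue. Each well value was divided by the mean of 8 DMSO control wells on the same plate and log10 transformed; duplicate blinded samples were tested at 4 concentrations.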

[2] = compound: C=C(C)C(=O)OCC(F)(F)C(F)(F)C(F)(F)C(F)(F)C(F)(F)C(F)(F)C(F)(F)F
Experimental: as §1

[3] = compound: OCC(F)(F)C(F)(F)C(F)(F)F [1H,1H-Heptafluorobutanol]
Experimental: as §1

[4] = compound: O=C(O)CCC(F)(F)C(F)(F)C(F)(F)F [3:3 Fluorotelomer carboxylic acid]
Experimental: as §1

[5] = compound: C=CC(=O)OCCC(F)(F)C(F)(F)C(F)(F)C(F)(F)F [2-(Perfluorobutyl)ethyl acrylate]
Experimental: as §1

[6] = compound: O=S(=O)(O)C(F)(F)C(F)(F)C(F)(F)C(F)(F)F [Perfluorobutanesulfonic acid]
Experimental: as §1

[7] = compound: O=P(O)(O)CCC(F)(F)C(F)(F)C(F)(F)C(F)(F)C(F)(F)C(F)(F)C(F)(F)C(F)(F)F [((Perfluorooctyl)ethyl)phosphonic acid]
Experimental: as §1

Test System: CASM3C:Serum Amyloid A
- level (log10) ([1]; 6700 nM): -0.007 ± 0.031
- level (log10) ([1]; 20000 nM): 0.0135 ± 0.076
- level (log10) ([2]; 6700 nM): -0.014 ± 0.0028
- level (log10) ([2]; 20000 nM): -0.009 ± 0.0042
- level (log10) ([3]; 6700 nM): -0.029 ± 0.04
- level (log10) ([3]; 20000 nM): 0.012 ± 0.035
- level (log10) ([3]; 60000 nM): 0.018 ± 0.021
- level (log10) ([4]; 6700 nM): -0.0055 ± 0.029
- level (log10) ([4]; 20000 nM): -0.004 ± 0.0042
- level (log10) ([4]; 60000 nM): -0.0005 ± 0.032
- level (log10) ([5]; 6700 nM): -0.007
- level (log10) ([5]; 20000 nM): -0.0175 ± 0.016
- level (log10) ([5]; 60000 nM): -0.0305 ± 0.08
- level (log10) ([6]; 6700 nM): -0.0575 ± 0.08
- level (log10) ([6]; 20000 nM): -0.0795 ± 0.071
- level (log10) ([6]; 60000 nM): -0.068 ± 0.055
- level (log10) ([7]; 6700 nM): -0.0065 ± 0.044
- level (log10) ([7]; 20000 nM): -0.0225 ± 0.015
- level (log10) ([7]; 60000 nM): 0.083 ± 0.055

Test System: HDF3CGF:CCL2/MCP-1
- level (log10) ([1]; 6700 nM): -0.034 ± 0.017
- level (log10) ([1]; 20000 nM): -0.018 ± 0.016
- level (log10) ([2]; 6700 nM): -0.0205 ± 0.03
- level (log10) ([2]; 20000 nM): -0.007 ± 0.0042
- level (log10) ([3]; 6700 nM): 0.001 ± 0.014
- level (log10) ([3]; 20000 nM): 0.0225 ± 0.021
- level (log10) ([3]; 60000 nM): -0.009 ± 0.03
- level (log10) ([4]; 6700 nM): 0.004 ± 0.013
- level (log10) ([4]; 20000 nM): 0.0005 ± 0.0035
- level (log10) ([4]; 60000 nM): 0.015 ± 0.041
- level (log10) ([5]; 6700 nM): -0.032 ± 0.0085
- level (log10) ([5]; 20000 nM): -0.059 ± 0.025
- level (log10) ([5]; 60000 nM): -0.117 ± 0.054
- level (log10) ([6]; 6700 nM): -0.0075 ± 0.037
- level (log10) ([6]; 20000 nM): 0.0005 ± 0.025
- level (log10) ([6]; 60000 nM): -0.023 ± 0.03
- level (log10) ([7]; 6700 nM): 0.028 ± 0.011
- level (log10) ([7]; 20000 nM): -0.005 ± 0.0014
- level (log10) ([7]; 60000 nM): -0.0855 ± 0.056

Test System: HDF3CGF:CD54/ICAM-1
- level (log10) ([1]; 6700 nM): -0.0105 ± 0.016
- level (log10) ([1]; 20000 nM): 0.0095 ± 0.0035
- level (log10) ([2]; 6700 nM): -0.008 ± 0.0085
- level (log10) ([2]; 20000 nM): -0.01 ± 0.014
- level (log10) ([3]; 6700 nM): -0.008 ± 0.0042
- level (log10) ([3]; 20000 nM): 0.0005 ± 0.0021
- level (log10) ([3]; 60000 nM): 0.0045 ± 0.0092
- level (log10) ([4]; 6700 nM): -0.0025 ± 0.0078
- level (log10) ([4]; 20000 nM): -0.0135 ± 0.015
- level (log10) ([4]; 60000 nM): -0.017 ± 0.0028
- level (log10) ([5]; 6700 nM): -0.028 ± 0.025
- level (log10) ([5]; 20000 nM): -0.035 ± 0.025
- level (log10) ([5]; 60000 nM): -0.131 ± 0.059
- level (log10) ([6]; 6700 nM): -0.009 ± 0.016
- level (log10) ([6]; 20000 nM): -0.0145 ± 0.0021
- level (log10) ([6]; 60000 nM): 0.003 ± 0.011
- level (log10) ([7]; 6700 nM): -0.009 ± 0.0099
- level (log10) ([7]; 20000 nM): -0.0235 ± 0.015
- level (log10) ([7]; 60000 nM): -0.0625 ± 0.028

Test System: HDF3CGF:CD106/VCAM-1
- level (log10) ([1]; 6700 nM): -0.0925 ± 0.013
- level (log10) ([1]; 20000 nM): -0.115 ± 0.018
- level (log10) ([2]; 6700 nM): -0.01 ± 0.037
- level (log10) ([2]; 20000 nM): -0.017 ± 0.11
- level (log10) ([3]; 6700 nM): -0.033 ± 0.048
- level (log10) ([3]; 20000 nM): -0.003 ± 0.079
- level (log10) ([3]; 60000 nM): -0.0055 ± 0.09
- level (log10) ([4]; 6700 nM): -0.0055 ± 0.00071
- level (log10) ([4]; 20000 nM): 0.02 ± 0.014
- level (log10) ([4]; 60000 nM): -0.009 ± 0.0085
- level (log10) ([5]; 6700 nM): -0.068 ± 0.0028
- level (log10) ([5]; 20000 nM): -0.203 ± 0.049
- level (log10) ([5]; 60000 nM): -0.317 ± 0.041
- level (log10) ([6]; 6700 nM): -0.02 ± 0.013
- level (log10) ([6]; 20000 nM): -0.01 ± 0.0014
- level (log10) ([6]; 60000 nM): -0.025 ± 0.058
- level (log10) ([7]; 6700 nM): 0.098 ± 0.0028
- level (log10) ([7]; 20000 nM): -0.006 ± 0.0085
- level (log10) ([7]; 60000 nM): -0.145 ± 0.012

Test System: HDF3CGF:CXCL8/IL-8
- level (log10) ([1]; 6700 nM): 0.002 ± 0.0014
- level (log10) ([1]; 20000 nM): 0.0165 ± 0.019
- level (log10) ([2]; 6700 nM): -0.0015 ± 0.016
- level (log10) ([2]; 20000 nM): 0.0045 ± 0.00071
- level (log10) ([3]; 6700 nM): -0.0025 ± 0.0064
- level (log10) ([3]; 20000 nM): 0 ± 0.0028
- level (log10) ([3]; 60000 nM): 0.0015 ± 0.0021
- level (log10) ([4]; 6700 nM): -0.006 ± 0.016
- level (log10) ([4]; 20000 nM): -0.002 ± 0.0099
- level (log10) ([4]; 60000 nM): -0.004 ± 0.017
- level (log10) ([5]; 6700 nM): -0.003 ± 0.011
- level (log10) ([5]; 20000 nM): 0 ± 0.0028
- level (log10) ([5]; 60000 nM): -0.007 ± 0.021
- level (log10) ([6]; 6700 nM): 0.0025 ± 0.0078
- level (log10) ([6]; 20000 nM): -0.002 ± 0.0057
- level (log10) ([6]; 60000 nM): -0.0025 ± 0.0021
- level (log10) ([7]; 6700 nM): -0.0065 ± 0.022
- level (log10) ([7]; 20000 nM): -0.005 ± 0.0057
- level (log10) ([7]; 60000 nM): -0.0485 ± 0.011

Test System: HDF3CGF:CXCL9/MIG
- level (log10) ([1]; 6700 nM): -0.035 ± 0.0071
- level (log10) ([1]; 20000 nM): -0.0875 ± 0.049
- level (log10) ([2]; 6700 nM): 0.02 ± 0.024
- level (log10) ([2]; 20000 nM): 0.0165 ± 0.015
- level (log10) ([3]; 6700 nM): 0.0035 ± 0.028
- level (log10) ([3]; 20000 nM): -0.0005 ± 0.022
- level (log10) ([3]; 60000 nM): -0.008 ± 0.033
- level (log10) ([4]; 6700 nM): -0.0115 ± 0.018
- level (log10) ([4]; 20000 nM): -0.005 ± 0.0057
- level (log10) ([4]; 60000 nM): 0.0295 ± 0.025
- level (log10) ([5]; 6700 nM): -0.0335 ± 0.019
- level (log10) ([5]; 20000 nM): -0.176 ± 0.064
- level (log10) ([5]; 60000 nM): -0.498 ± 0.071
- level (log10) ([6]; 6700 nM): -0.01 ± 0.0085
- level (log10) ([6]; 20000 nM): -0.0145 ± 0.0092
- level (log10) ([6]; 60000 nM): -0.0035 ± 0.005
- level (log10) ([7]; 6700 nM): 0.102 ± 0.017
- level (log10) ([7]; 20000 nM): 0.0505 ± 0.018
- level (log10) ([7]; 60000 nM): -0.0155 ± 0.061

Test System: HDF3CGF:CXCL10/IP-10
- level (log10) ([1]; 6700 nM): -0.0265 ± 0.0035
- level (log10) ([1]; 20000 nM): -0.0645 ± 0.03
- level (log10) ([2]; 6700 nM): -0.012 ± 0.0042
- level (log10) ([2]; 20000 nM): -0.002 ± 0.025
- level (log10) ([3]; 6700 nM): 0.0105 ± 0.04
- level (log10) ([3]; 20000 nM): -0.006 ± 0.016
- level (log10) ([3]; 60000 nM): -0.0055 ± 0.011
- level (log10) ([4]; 6700 nM): -0.0005 ± 0.013
- level (log10) ([4]; 20000 nM): 0.003 ± 0.0042
- level (log10) ([4]; 60000 nM): -0.011 ± 0.011
- level (log10) ([5]; 6700 nM): -0.0135 ± 0.029
- level (log10) ([5]; 20000 nM): -0.0985 ± 0.013
- level (log10) ([5]; 60000 nM): -0.281 ± 0.032
- level (log10) ([6]; 6700 nM): -0.0075 ± 0.0078
- level (log10) ([6]; 20000 nM): -0.0105 ± 0.005
- level (log10) ([6]; 60000 nM): -0.0195 ± 0.0021
- level (log10) ([7]; 6700 nM): 0.077 ± 0.0014
- level (log10) ([7]; 20000 nM): 0.0255 ± 0.005
- level (log10) ([7]; 60000 nM): -0.0375 ± 0.005
